Experimental data reported in US11648254B2 (Kumquat Biosciences Inc., priority 2021, dated 2023).
Where two headings read alike, the source gives them in different places.

How the values were obtained:
SOS1 = SOS1 (Homo sapiens (Human), UniProt Q07889); test: Ras-SOS interaction assay (HTRF); format: biochemical
[1] = tested on: MIA PaCa-2 cells (K-Ras G12C); test: Ras-SOS cellular growth inhibition assay (CellTiter-Glo, 3D); format: cell-based; settings: Homo sapiens
Summary of the method: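 Growth read by CellTiter-Glo luminescence about 5 days after dosing with 3-fold dilutions (9 points), added one day post-seeding. Cells: MIA PaCa-2, 3D culture on ultra-low-attachment surface, medium DMEM/Ham's F12 plus 10% FCS and 2.5% horse serum; IC50 by four-parameter fit.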

[2] = tested on: NCI-H1975 cells (EGFR T790M L858R); test: EGFR-SOS cellular inhibition assay (CellTiter-Glo, 3D); format: cell-based; settings: Homo sapiens
[3] = K-RasG13D utilized, read-out: IC50 inhibition of SOS
[4] = K-RasG13D, read-out: IC50 value against SOS1
[5] = MIA PaCa-2, 120 h, MIA PaCa-2, 3D proliferation, about 5 days, read-out: Bio-Cell-Prolif-3D (MiaPaca2 IC50)
[6] = 120 h, NCI-H1975, 3D proliferation, about 5 days, read-out: Bio-Cell-Prolif-3D (H1975 IC50)
[7] = NCI-H1975, EGFR T790M L858R, read-out: IC50 in inhibiting growth of NCI-H1975 cell line
[8] = MIA PaCa-2, MIA PaCa-2, read-out: IC50 in inhibiting MIA PaCa-2 cell growth

Sequence of SOS1 (Q07889 564-1049): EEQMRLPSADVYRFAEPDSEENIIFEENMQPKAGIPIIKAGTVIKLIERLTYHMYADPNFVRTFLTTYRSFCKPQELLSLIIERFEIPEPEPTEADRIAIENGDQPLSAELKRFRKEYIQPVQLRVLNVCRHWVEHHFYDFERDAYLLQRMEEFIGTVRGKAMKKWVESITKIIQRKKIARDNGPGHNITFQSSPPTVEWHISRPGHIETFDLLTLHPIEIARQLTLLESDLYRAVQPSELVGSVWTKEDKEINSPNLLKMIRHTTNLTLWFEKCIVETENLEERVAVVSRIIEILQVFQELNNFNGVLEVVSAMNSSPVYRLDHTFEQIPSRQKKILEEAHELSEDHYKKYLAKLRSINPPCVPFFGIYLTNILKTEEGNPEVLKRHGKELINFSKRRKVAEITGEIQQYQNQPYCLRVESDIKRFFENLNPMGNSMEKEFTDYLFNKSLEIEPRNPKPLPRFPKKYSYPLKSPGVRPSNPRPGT

Row | SMILES | IC50 (SOS1; [3]) [nM] | IC50 (SOS1; [4]) [nM] | IC50 [1, 5] [nM] | IC50 [2, 6] [nM] | IC50 [2, 7] [nM] | IC50 [1, 8] [nM]
1 | COc1nc2ncnc(N[C@H](C)c3cccc(C(F)F)c3F)c2cc1C1(C(F)F)CC1 [Compound 185, (R)-N-(1-(3-(difluoromethyl)-2-fluorophenyl)ethyl)-6-(1-(difluoromethyl)cyclopropyl)-7-methoxypyrido[2,3-d]pyrimidin-4-amine] | 100 to 1000 |  | 1000 to 10000 | 1000 to 10000 |  | 
2 | CC(C)N1CCC(c2cc3c(N[C@H](C)c4cccc(C(F)F)c4F)ncnc3nc2OC2CN(C)C2)CC1 [Compound 187, (R)-N-(1-(3-(difluoromethyl)-2-fluorophenyl)ethyl)-6-(1-isopropylpiperidin-4-yl)-7-((1-methylazetidin-3-yl)oxy)pyrido[2,3-d]pyrimidin-4-amine] | < 100 | < 50 | 1000 to 10000 | 1000 to 10000 |  | 
3 | CCN1CCN(c2cc3c(N[C@H](C)c4cccc(C(F)F)c4F)nc(C)nc3nc2NC2COC2)CC1 [Compound 188, (R)-N4-(1-(3-(difluoromethyl)-2-fluorophenyl)ethyl)-6-(4-ethylpiperazin-1-yl)-2-methyl-N7-(oxetan-3-yl)pyrido[2,3-d] pyrimidine-4,7-diamine] | < 100 | < 50 | 1000 to 10000 | ≤ 1000 | < 500 | 
4 | COc1nc2ncnc(N[C@H](C)c3cccc(C(F)F)c3F)c2cc1C1CCN(C(C)C)CC1 [Compound 189, (R)-N-(1-(3-(difluoromethyl)-2-fluorophenyl)ethyl)-6-(1-isopropylpiperidin-4-yl)-7-methoxypyrido[2,3-d]pyrimidin-4-amine] | < 100 |  | 1000 to 10000 | ≤ 1000 |  | 
5 | Cc1nc(N[C@H](C)c2cccc(C(F)F)c2F)c2cc(C3(C(F)F)CC3)c(OC3CN(C)C3)nc2n1 [Compound 190, (R)-N-(1-(3-(difluoromethyl)-2-fluorophenyl)ethyl)-6-(1-(difluoromethyl)cyclopropyl)-2-methyl-7-((1-methylazetidin-3-yl)oxy)pyrido[2,3-d] pyrimidin-4-amine] | < 100 | < 50 | ≤ 1000 | ≤ 1000 | < 500 | < 500
6 | Cc1nc(N[C@H](C)c2cccc(C(F)F)c2F)c2cc(C3CCS(=O)(=O)CC3)c(OC3CN(C)C3)nc2n1 [Compound 191, (R)-4-(4-((1-(3-(difluoromethyl)-2-fluorophenyl)ethyl)amino)-2-methyl-7-((1-methylazetidin-3-yl)oxy)pyrido[2,3-d]pyrimidin-6-yl)tetrahydro-2H-thiopyran 1,1-dioxide] | < 100 | < 50 | 1000 to 10000 | 1000 to 10000 |  | 
7 | Cc1nc(N[C@H](C)c2cccc(C(F)F)c2F)c2cc(N3CCN(C(C)C)CC3)c(NC3COC3)nc2n1 [Compound 192, (R)-N4-(1-(3-(difluoromethyl)-2-fluorophenyl)ethyl)-6-(4-isopropylpiperazin-1-yl)-2-methyl-N7-(oxetan-3-yl)pyrido[2,3-d] pyrimidine-4,7-diamine] | < 100 | < 50 | 1000 to 10000 | ≤ 1000 |  | 
8 | Cc1nc(N[C@H](C)c2cccc(C(F)(F)CO)c2)c2cc(C3(C#N)CC3)c(Cl)nc2n1 [Compound 194, (R)-1-(7-chloro-4-((1-(3-(1,1-difluoro-2-hydroxyethyl)phenyl)ethyl)amino)-2-methylpyrido[2,3-d]pyrimidin-6-yl)cyclopropane-1-carbonitrile] | < 100 | < 50 | ≤ 1000 | ≤ 1000 |  | < 500
9 | CCN1CCN(c2cc3c(N[C@H](C)c4cccc(C(F)(F)F)c4F)ncnc3nc2OC)CC1 [Compound 196, (R)-6-(4-ethylpiperazin-1-yl)-N-(1-(2-fluoro-3-(trifluoromethyl)phenyl)ethyl)-7-methoxypyrido[2,3-d]pyrimidin-4-amine] | < 100 | < 50 | ≤ 1000 | ≤ 1000 | < 500 | < 500
10 | COc1nc2ncnc(N[C@H](C)c3cccc(C(F)(F)F)c3F)c2cc1N1CCN(C)CC1 [Compound 197, (R)-N-(1-(2-fluoro-3-(trifluoromethyl)phenyl)ethyl)-7-methoxy-6-(4-methylpiperazin-1-yl)pyrido[2,3-d] pyrimidin-4-amine] | < 100 | < 50 | ≤ 1000 | ≤ 1000 | < 500 | < 500

More lines, now with the values ahead:

Row | IC50 (SOS1; [3]) [nM] | IC50 (SOS1; [4]) [nM] | IC50 [1, 5] [nM] | IC50 [2, 6] [nM] | IC50 [2, 7] [nM] | IC50 [1, 8] [nM] | SMILES
11 | < 100 | < 50 | 1000 to 10000 | ≤ 1000 | < 500 |  | COc1nc2nc(C)nc(N[C@H](C)c3cccc(C(F)(F)C(C)(C)O)c3)c2cc1C1CCS(=O)(=O)CC1 [Compound 173, (R)-4-(4-((1-(3-(1,1-difluoro-2-hydroxy-2-methylpropyl)phenyl)ethyl)amino)-7-methoxy-2-methylpyrido[2,3-d]pyrimidin-6-yl)tetrahydro-2H-thiopyran 1,1-dioxide]
12 | < 100 | < 50 | ≤ 1000 | ≤ 1000 | < 500 | < 500 | COc1nc2nc(C)nc(N[C@H](C)c3cccc(C(F)(F)CO)c3F)c2cc1C1CCS(=O)(=O)CC1 [Compound 174, (R)-4-(4-((1-(3-(1,1-difluoro-2-hydroxyethyl)-2-fluorophenyl)ethyl)amino)-7-methoxy-2-methylpyrido[2,3-d]pyrimidin-6-yl)tetrahydro-2H-thiopyran 1,1-dioxide]
13 | < 100 | < 50 | ≤ 1000 | ≤ 1000 | < 500 | < 500 | COc1nc2nc(C)nc(N[C@H](C)c3cccc(C(F)(F)CCC4CN(C(C)C)C4)c3F)c2cc1C1(C#N)CC1 [Compound 176, (R)-1-(4-((1-(3-(1,1-difluoro-3-(1-isopropylazetidin-3-yl)propyl)-2-fluorophenyl)ethyl)amino)-7-methoxy-2-methylpyrido[2,3-d]pyrimidin-6-yl)cyclopropane-1-carbonitrile]
14 | < 100 | < 50 | ≤ 1000 | ≤ 1000 | < 500 | < 500 | COc1nc2nc(C)nc(N[C@H](C)c3cccc(C(F)(F)CCC4CN(C)C4)c3F)c2cc1C1(C#N)CC1 [Compound 177, (R)-1-(4-((1-(3-(1,1-difluoro-3-(1-methylazetidin-3-yl)propyl)-2-fluorophenyl)ethyl)amino)-7-methoxy-2-methylpyrido[2,3-d]pyrimidin-6-yl)cyclopropane-1-carbonitrile]
15 | < 100 | < 50 | ≤ 1000 | 1000 to 10000 |  | < 500 | Cc1nc(N[C@H](C)c2cccc(C(F)(F)F)c2C)c2cc(C3(C#N)CC3)c(N3CCN(C(C)C)CC3)nc2n1 [Compound 178, (R)-1-(7-(4-isopropylpiperazin-1-yl)-2-methyl-4-((1-(2-methyl-3-(trifluoromethyl)phenyl)ethyl)amino)pyrido[2,3-d]pyrimidin-6-yl)cyclopropane-1-carbonitrile]
16 | < 100 | < 50 | ≤ 1000 | ≤ 1000 | < 500 | < 500 | COc1nc2nc(C)nc(N[C@H](C)c3cccc(C(F)(F)CO)c3)c2cc1C1(C#N)CC1 [Compound 179, (R)-1-(4-((1-(3-(1,1-difluoro-2-hydroxyethyl)phenyl)ethyl)amino)-7-methoxy-2-methylpyrido[2,3-d]pyrimidin-6-yl)cyclopropane-1-carbonitrile]
17 | < 100 | < 50 | ≤ 1000 | ≤ 1000 | < 500 | < 500 | COc1nc2nc(C)nc(N[C@H](C)c3cccc(C(F)(F)CCC4CN(C)C4)c3F)c2cc1C1CCS(=O)(=O)CC1 [Compound 180, (R)-4-(4-((1-(3-(1,1-difluoro-3-(1-methylazetidin-3-yl)propyl)-2-fluorophenyl)ethyl)amino)-7-methoxy-2-methylpyrido[2,3-d]pyrimidin-6-yl)tetrahydro-2H-thiopyran 1,1-dioxide]
18 | < 100 | < 50 | ≤ 1000 | ≤ 1000 | < 500 | < 500 | COc1nc2nc(C)nc(N[C@H](C)c3cccc(C(F)(F)CO)c3F)c2cc1N1CCN(C(C)C)CC1 [Compound 181, (R)-2,2-difluoro-2-(2-fluoro-3-(1-((6-(4-isopropylpiperazin-1-yl)-7-methoxy-2-methylpyrido[2,3-d]pyrimidin-4-yl)amino)ethyl)phenyl)ethan-1-ol]
19 | < 100 | < 50 | 1000 to 10000 | ≤ 1000 | < 500 |  | Cc1nc(N[C@H](C)c2cccc(C(F)F)c2F)c2cc(N3CCS(=O)(=O)CC3)c(OC3COC3)nc2n1 [Compound 183, (R)-4-(4-((1-(3-(difluoromethyl)-2-fluorophenyl)ethyl)amino)-2-methyl-7-(oxetan-3-yloxy)pyrido[2,3-d]pyrimidin-6-yl)thiomorpholine 1,1-dioxide]
20 | < 100 |  | ≤ 1000 | ≤ 1000 | < 500 |  | COc1nc2ncnc(N[C@H](C)c3cccc(C(F)F)c3F)c2cc1C1(C#N)CC1 [Compound 184, (R)-1-(4-((1-(3-(difluoromethyl)-2-fluorophenyl)ethyl)amino)-7-methoxypyrido[2,3-d]pyrimidin-6-yl)cyclopropane-1-carbonitrile]
